≈ marks a conversion by molar mass, not a printed value. Each block holds one compound with its values, some of them ahead of it.
Tests used:
MRSA clinical strains = test: Bacterial growth susceptibility (OD600), MRSA; assay type: cell-based; conditions: all concentrations tested, up to 24 h, vs untreated
Description: (§1) In this example, 8 clinical strains each of MRSA and E. coli were evaluated. For each bacterial strain, one colony of bacteria grown on tryptic soy agar (TSA) was suspended in 1 mL tryptic soy broth (TSB). One μL aliquots were transferred to a 100-well honeycomb plate with 199 μL TSB. This TSB contained either 1, 2.5, 5, or 10 mg/mL SNO-CAP-np, or 2.5, 5, or 10 mM captopril, and controls included wells containing bacteria and TSB alone. The background absorbance of each SNO-CAP-np concentration was accounted for by wells containing SNO-CAP-np and TSB alone. No background absorbance was measured for captopril. […] All wells were incubated for 24 hours at 37° C. and growth was assessed by measuring optical density at 600 nm (OD600) with a microplate reader (Bioscreen C, Growth Curves USA, Piscataway, N.J.). Each condition was measured in triplicate, and averages were calculated along with standard error of the mean (SEM).
(§2) E. coli and MRSA strains were incubated at 37° C. with and without various concentrations of SNO-CAP-np (1, 2.5, 5, or 10 mg/mL) or captopril ([…]) for 24 h. […] Each data set represents averages for 8 strains of either E. coli or MRSA, and conditions for each strain were measured in triplicate. […]

E. coli clinical strains = test: Bacterial growth susceptibility (OD600), E. coli; assay type: cell-based; conditions: all concentrations tested, up to 24 h, vs untreated
Description: as §1, §2

E. coli = test: Colony-forming units (CFU) assay, E. coli; assay type: cell-based; conditions: 24 h
Description: (§3) Following 24 h incubation of E. coli and MRSA, 10 μL aspirates from wells of the honeycomb plates were transferred to Eppendorf tubes with 990 μL PBS and gently vortexed. Controls were collected in the same fashion from wells containing only bacteria and TSB. The suspensions were serially diluted in PBS so that final concentrations were 10^−6 of the incubated concentration, and 100 μL aliquots were plated on TSA plates for 24 h. As with the absorbance assays, 8 clinical strains each of MRSA and E. coli were evaluated (data represents an average for the 8 strains each of E. coli and MRSA), and all conditions were measured in triplicate. CFU's were counted and recorded. Percent survival was determined by comparing CFU counts of SNO-CAP-np- or captopril-treated bacteria to CFU counts of untreated bacteria. P-value <0.05 by unpaired t-test was considered significant.

MRSA = test: Colony-forming units (CFU) assay, MRSA; assay type: cell-based; conditions: 24 h
Description: as §3

T. rubrum [1] = test: aPI in the presence of ROS and RNS scavengers, CFU; assay type: cell-based; conditions: scavenger added before aPI with curcumin photosensitizer
Description: (§4) Different ROS and RNS scavengers were used to evaluate the effect of radical stress inhibition on aPI efficacy. […] Scavengers were added to fungal suspensions immediately before initiation of aPI and incubated for 1 h with RPMI 1640 without phenol red plus 2% glucose at 28° C. To evaluate fungal viability, 150 μL of the fungal suspensions were plated onto PDA, and incubated at 28° C. for 72 hours. The HT TitierTACS™ assay kit (Trevigen, Gaithersburg, Md., USA) was used to evaluate the occurrence of apoptosis after aPI.

T. rubrum [2] = test: Susceptibility testing (microdilution, CLSI M38-A) and growth curves; assay type: cell-based
Description: Susceptibility of T. rubrum to ground-state curcumin was tested by a microdilution method according to CLSI M38-A.49, 52 Itraconazole concentration ranged from 0.015 μg/mL to 8 μg/mL and curcumin and curc-np concentrations from 0.0012 μg/mL to 20 μg/mL. A 1% DMSO solution in control medium was evaluated. The MIC value was defined as the concentration required for 80% […] compared to untreated control. 12, 49 Growth kinetics of ground-state curcumin compared to aPI was also evaluated. Growth was evaluated for 7 days at 28° C. using a Bioscreen C growth curve system (Growth Curves USA, Piscataway, N.J., USA).

T. rubrum cells = test: Apoptosis assay after aPI (HT TitierTACS kit); assay type: cell-based; conditions: vs untreated control
Description: as §4

[3] = test system: J774.16 macrophages challenged with T. rubrum; test: Phagocytosis assay: J774.16 macrophages challenged with T. rubrum and treated with aPI; assay type: cell-based
Description: Macrophages were challenged with T. rubrum and treated with aPI to investigate the efficacy against infected mammalian cells. Specifically, J774.16 macrophages were grown at 37° C. with 10% CO2 in DMEM (Cellgro, Manassas, Va., USA). The fungal-macrophage cell proportion was 1:1, with 5.0×10^5 fungal cells to 5.0×10^5 macrophage cells. After challenging macrophages with T. rubrum microconidia, the cells were submitted to aPI, followed by incubation in the 10% CO2 chamber at 37° C. for 24 hours. The macrophages were lysed with cold distilled water and the lysate plated onto PDA and incubated at 28° C. for 72 hours.

T. rubrum microconidia = test: Antimicrobial photodynamic inhibition (aPI) optimization, CFU; assay type: cell-based
Description: In this example, a curcumin (Sigma-Aldrich, St. […] For susceptibility testing, the stock was dilution in RPMI 1640 medium to a final concentration of 40 μg/mL. For aPI, the stock was diluted in PBS to concentrations of 1.0, 10 and 100 μg/mL. […] A comparative concentration of curcumin incorporated in nanoparticles was used based on spectrophotometric release curves showing that each mg of curc-np contained 10 μg of curcumin. For susceptibility testing, 8 mg of curc-np was suspended in 1 mL of PBS and diluted in RPMI to a final concentration of […] (equivalent to 40 μg/mL of encapsulated curcumin). For aPI, 10 mg of curc-np was suspended in 1 mL of PBS and serially diluted to obtain 10 μg/mL, 100 μg/mL and 10 mg/L of curc-np (equivalent to 1.0, 10, and 100 μg/mL of encapsulated curcumin). The light source used was BLU-U® light model 4070 (DUSA pharmaceuticals, Wilmington, Mass., USA), which emits blue light at a wavelength of 417±5 nm. The doses used were 10 J/cm^2 (17 minutes), 20 J/cm^2 (34 minutes), and 40 J/cm^2 (68 minutes). BLU-U light was chosen as the light source due to its resonance with curcumin. For aPI optimization, fungal cells were submitted to different treatment conditions by varying the photosensitizer (PS) concentration and light dose, as described in Table 1, below. PS without photoactivation and blue light alone served as dark toxicity and light controls, respectively. […] [table]

T. rubrum [4] = test: In vivo antimicrobial photodynamic therapy (aPDT) pilot study; design: species or system BALB/c mice; conditions: 500 μg/mL in coconut oil, 10 J/cm^2 blue light, one treatment, CFU three days post treatment
Description: BALB/c mice were subcutaneously infected with T. rubrum. Seven days post-infection, mice (n=2 per group) were submitted to one treatment of aPDT, using 500 μg/mL of curcumin and curc-np suspended in coconut oil and 10 J/cm^2 of blue light. Pre-irradiation incubation time was 30 minutes, under light protection. Tissue was homogenized and CFUs quantified three days post treatment.

T. rubrum [5] = test: Intracellular ROS and RNS after aPI, flow cytometry; assay type: cell-based; conditions: vs untreated
Description: Following aPI, samples were incubated with fluorescent probes for 30 minutes at 28° C., and subsequently analyzed with flow cytometry (Becton Dickinson™ LSRII, USA) using a 530/30 nm band pass filter for fluorescence detection. The Mean Fluorescence Intensity (MFI) was considered to determine radical production. Data analyses were performed using FlowJo 10.1 software.

[6] = test system: Pseudomonas aeruginosa, MRSA, Escherichia coli, Klebsiella pneumoniae; conditions: same concentration as generated from the nanoparticles; cited from earlier work

Structure (SMILES): C[C@H](CS)C(=O)N1CCC[C@H]1C(=O)O [captopril]
- effect on MRSA growth (OD600) (MRSA clinical strains): did not have an effect
- effect on E. coli growth (OD600) (E. coli clinical strains): showed an effect on E. coli growth in a dose dependent fashion
- average E. coli survival compared with untreated controls (E. coli; 2.5 mM): 85%
- average E. coli survival compared with untreated controls (E. coli; 5 mM): 83.6%
- average E. coli survival compared with untreated controls (E. coli; 10 mM): 59.1%
- average MRSA survival compared with untreated controls (MRSA; 2.5 mM): 99.3%
- average MRSA survival compared with untreated controls (MRSA; 5 mM): 95.6%
- average MRSA survival compared with untreated controls (MRSA; 10 mM): 69.5%

Structure (SMILES): CC(=O)C(=O)[O-].[Na+] [sodium pyruvate]
- inhibition of aPI efficacy by scavenger (fungal growth, CFU) (T. rubrum [1]): none of the concentrations

Structure (SMILES): O.O=S(=O)([O-])c1cc(O)c(O)c(S(=O)(=O)[O-])c1.[Na+].[Na+] [Tiron, 4,5-dihydroxy-1,3-benzenedisulfonic acid disodiumsalt hydrate]
- inhibition of aPI efficacy by scavenger (fungal growth, CFU) (T. rubrum [1]): none of the concentrations

- MIC (T. rubrum [2]; Trichophyton rubrum, clinical T. rubrum strain): 0.25 µg/mL (≈ 0.354 µM)
Structure (SMILES): CCC(C)n1ncn(-c2ccc(N3CCN(c4ccc(OCC5COC(Cn6cncn6)(c6ccc(Cl)cc6Cl)O5)cc4)CC3)cc2)c1=O (centres unmarked) [itraconazole]

Structure (SMILES): OC[C@@H](O)[C@@H](O)[C@H](O)[C@H](O)CO [D-mannitol]
- inhibition of aPI efficacy by scavenger (fungal growth, CFU) (T. rubrum [1]): none of the concentrations

Structure (SMILES): COc1cc(/C=C/C(=O)CC(=O)/C=C/c2ccc(O)c(OC)c2)ccc1O [curcumin]
- apoptosis of T. rubrum cells after irradiation with blue light (T. rubrum cells): significant trend towards increased apoptosis
- apoptosis of T. rubrum cells without irradiation (T. rubrum cells): did not induce apoptosis
- macrophage-induced destruction of T. rubrum cells, no aPI ([3]; ground state): caused a decrease in macrophage-induced destruction of T. rubrum cells
- fungal burden (CFU) in macrophages after aPI ([3]; vs untreated, dark toxicity and blue light controls): significantly reduced fungal burden
- fungal viability (CFU) after aPI, lowest PS concentration (T. rubrum microconidia; 0.1 μg/mL, blue light 40 J/cm^2): did not differ significantly from untreated control
- T. rubrum growth (CFU) after aPI at varying light dose (T. rubrum microconidia; 10 μg/mL, blue light 10, 20 and 40 J/cm^2): completely inhibited T. rubrum growth
- fungal growth (CFU) after aPI, highest concentration (T. rubrum microconidia; 10 μg/mL, blue light 40 J/cm^2): complete growth inhibition
- fungal viability (CFU) after aPI (T. rubrum microconidia; 1.0 and 10 μg/mL, blue light 40 J/cm^2, vs untreated): significantly decreased fungal viability
- fungal burden, PS without photoactivation (dark toxicity) (T. rubrum microconidia; three concentrations tested, no light): did not reduce fungal burden
- fungal burden compared to untreated control (T. rubrum [4]): did not significantly reduce fungal burden
- fold change in NO. production (T. rubrum [5]; DAF-FM probe): 6 fold
- fold-change in ONOO. production (T. rubrum [5]; DHR 123 probe): 7 fold
- fold-change in ROS production (T. rubrum [5]; H2DCFDA probe): 17 fold
- fungal growth reduction, ground-state (no photoactivation) (T. rubrum [2]; seven-day incubation, 0.0012-20 μg/mL): did not yield significant 80% reduction of fungal growth

Structure (SMILES): CC1(C)N([O])C(c2ccc(C(=O)O)cc2)=[N+]([O-])C1(C)C [carboxy-PTIO]
- inhibition of aPI efficacy by scavenger (fungal growth, CFU) (T. rubrum [1]): T. rubrum growth was relatively intact despite aPI

Structure (SMILES): Cl.O=S(=O)([O-])c1ccc(-c2c3nc(c(-c4ccc(S(=O)(=O)O)cc4)c4ccc([nH]4)c(-c4ccc(S(=O)(=O)O)cc4)c4nc(c(-c5ccc(S(=O)(=O)O)cc5)c5ccc2[nH]5)C=C4)C=C3)cc1.[Fe] [FeTPPs, 5,10,15,20-tetrakis-(4-sulfonatophenyl)-porphyrinato iron (III) chloride]
- inhibition of aPI efficacy by scavenger (fungal growth, CFU) (T. rubrum [1]): T. rubrum growth was relatively intact despite aPI

Structure (SMILES): N[C@@H](CCC(=O)N[C@@H](CSN=O)C(=O)NCC(=O)O)C(=O)O [GSNO, S-nitrosoglutathione]
- antibacterial activity of an aliquot [6]: no antibacterial activity was observed
